Data from PubChem BioAssay (NCI).
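Each compound was tested at five concentrations against cells in 96-well plates for 48 hours. Definition used: TGI = concentration required for complete inhibition of growth.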

How the values were obtained:
Assay in all cases: NCI tumour cell line growth inhibition, 48 h
SR leukemia = test system: SR leukemia
MDA-MB-435 = test system: MDA-MB-435
SK-MEL-2 melanoma = test system: SK-MEL-2 melanoma
M14 melanoma = test system: M14 melanoma
SN12C renal = test system: SN12C renal
BT-549 breast = test system: BT-549 breast
PC-3 prostate = test system: PC-3 prostate
HT29 colon = test system: HT29 colon
ACHN renal = test system: ACHN renal
DU-145 prostate = test system: DU-145 prostate
MDA-MB-231 breast = test system: MDA-MB-231 breast
TK-10 renal = test system: TK-10 renal
M19-MEL melanoma = test system: M19-MEL melanoma
A498 renal = test system: A498 renal
HOP-18 NSCLC = test system: HOP-18 NSCLC
HL-60(TB) leukemia = test system: HL-60(TB) leukemia
DMS 114 small cell lung = test system: DMS 114 small cell lung
DLD-1 colon = test system: DLD-1 colon
DMS 273 small cell lung = test system: DMS 273 small cell lung
P388 leukemia = test system: P388 leukemia

SMILES	TGI (SR leukemia)	TGI (MDA-MB-435)	TGI (SK-MEL-2 melanoma)	TGI (M14 melanoma)	TGI (SN12C renal)	TGI (BT-549 breast)	TGI (PC-3 prostate)	TGI (HT29 colon)	TGI (ACHN renal)	TGI (DU-145 prostate)	TGI (MDA-MB-231 breast)	TGI (TK-10 renal)	TGI (M19-MEL melanoma)	TGI (A498 renal)	TGI (HOP-18 NSCLC)	TGI (HL-60(TB) leukemia)	TGI (DMS 114 small cell lung)	TGI (DLD-1 colon)	TGI (DMS 273 small cell lung)	TGI (P388 leukemia)
COc1cc2c(cc1OC)-c1cc3ccccc3c(=O)n1CC2	96.8 µM	> 100 µM	48.8 µM	80.3 µM	> 100 µM	> 100 µM	40.6 µM	98.9 µM	> 100 µM	> 100 µM	43.8 µM	50.7 µM								
CCOC(=O)/C(O)=C1\C(=O)N(C)C(=O)C1c1cccc(OC)c1 (stereo not drawn)			> 100 µM		> 100 µM			> 100 µM					> 100 µM	> 100 µM	> 100 µM	> 100 µM	> 100 µM	> 100 µM	> 100 µM	> 100 µM
